Assay results: PubChem BioAssay (NCI)
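Assay format: 96-well plates, 48-hour exposure. At the GI50, growth is halved. The concentration for full growth arrest is given as TGI.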

What was measured:
Assay in all cases: NCI tumour cell line growth inhibition, 48 h
HOP-18 NSCLC = tested on: HOP-18 NSCLC
KM20L2 colon = tested on: KM20L2 colon
DLD-1 colon = tested on: DLD-1 colon
LXFL 529 NSCLC = tested on: LXFL 529 NSCLC
RXF-631 renal = tested on: RXF-631 renal
SNB-78 CNS = tested on: SNB-78 CNS
XF 498 CNS = tested on: XF 498 CNS
DMS 114 small cell lung = tested on: DMS 114 small cell lung
P388 leukemia = tested on: P388 leukemia
P388/ADR leukemia = tested on: P388/ADR leukemia
SN12K1 renal = tested on: SN12K1 renal

Structure (SMILES)	GI50 (HOP-18 NSCLC) [µM]	TGI (HOP-18 NSCLC) [µM]	GI50 (KM20L2 colon) [µM]	TGI (KM20L2 colon) [µM]	TGI (DLD-1 colon) [µM]	TGI (LXFL 529 NSCLC) [µM]	TGI (RXF-631 renal) [µM]	TGI (SNB-78 CNS) [µM]	TGI (XF 498 CNS) [µM]	TGI (DMS 114 small cell lung) [µM]	TGI (P388 leukemia) [µM]	TGI (P388/ADR leukemia) [µM]	TGI (SN12K1 renal) [µM]
O=C([CH-]C(=O)c1ccccc1)c1ccccc1.O=C([CH-]C(=O)c1ccccc1)c1ccccc1.[O]=[U+2]=[O]	5.3	24.9	2.65	12.4									
COc1cc2c(c(O)c1O)-c1ccc(OC)c(=O)cc1C(NC(C)=O)CC2 (centres undefined)		> 100		11	> 100	44.3	> 92.9	> 100	38.5				
Cc1c2ccncc2c(C)c2c1[nH]c1ccccc12		6.38		5.89	2.33			7.88	3.29	3.09	2.89	4.32	3.37
O=[N+]([O-])c1ccc(C2=Nc3ccccc3SC(c3ccccc3)C2)cc1 (centres undefined)				32.8	48.3	34.8		70.9	31.6	32.8			
C[C@]12CC[C@H](O)C=C1CC[C@@H]1[C@@H]2CC[C@]2(C)C(c3ccc(=O)oc3)CC[C@]12O (some centres undefined)		0.0151		0.148	0.0392			0.503	0.0505	< 0.0125	125	125	0.0201
COc1c(O)c(O)cc2c1-c1ccc(OC)c(=O)cc1C(NC(C)=O)CC2 (centres undefined)		> 100		17.5	> 100	25.2	68.4	> 100	54.2	6.43			
O=C(OCc1ccccc1)C(Cc1ccccc1)N(Cc1ccccc1)Cc1ccccc1 (centres undefined)				> 100	> 100	> 100		> 100	> 100	> 100			
COc1cc(CC(C)N)ccc1O (centres undefined)		> 100		> 100	> 100	> 100	> 100	> 100	> 100	> 100			
NC(=O)c1ncn2c1NC(=O)CC2		> 100		> 100	> 100			> 86.8	> 100	> 100	> 31.6	> 100	> 100
O=C1c2cccc(NCCNCCO)c2C(=O)c2cccc(NCCNCCO)c21		7.79		5.3	12.6	2.95	16.4	6.91	1.88	1.41			
